This note sets out measurements from patent US20240366555A1, “SELECTIVE MTORC2 INHIBITOR AND USES THEREOF” (ALIAD BIOPHARMA, priority 2021, published 2024).

Assay [1] has as its target T1, mTORC1 (Homo sapiens, UniProt P42345).
T1 construct: mTORC1 was isolated by co-immunoprecipitation using Flag antibody; made in house; host or cells: HEK 293T transfected with Flag-Raptor
The experiment in a line: In vitro mTORC1 kinase assay (GST-S6K Thr389 phosphorylation, immunoblot). The format is biochemical. Particulars: assay validation with dual mTOR inhibitor. The procedure: In order to investigate the effect on mTORC1 activity of norathyriol, in vitro mTORC1 kinase assay was performed. After introducing Flag-Raptor into a human cell line 293T, mTORC1 was isolated by co-immunoprecipitation using Flag antibody. In addition, the activity of the isolated mTORC1 complex was evaluated by measuring phosphorylation of GST-S6K Thr389, which is a selective substrate of mTORC1, by immunoblot analysis. In the control group in which Flag-Raptor was not introduced, GST-S6K Thr389 phosphorylation was almost not measured. […] Therefore, it was judged that GST-S6K Thr389 phosphorylation measured in the in vitro mTORC1 kinase assay was generated by mTORC1. In order to evaluate the inhibitory effect of norathyriol on mTORC1 activity, norathyriol was pretreated for 15 minutes, and then in vitro mTORC1 kinase assay was carried out.
More specifically, the HEK 293T cells were cultured in a DMEM culture medium in which 10% heat inactivated FBS+1× Glutamax was added. 8×10^5 HEK 293T cells were seeded in a 100 mm culture dish, and then they were cultured for 1 day. After mixing 42 μl Lipofectamine, 21 μl plus reagent, and 21 μg Flag-Raptor plasmid DNA to 1 ml OPTI-MEM, it was shaken at a room temperature for 25 minutes to prepare a transfection DNA mixture. The transfection DNA mixture was slowly treated on the cells drop by drop, and after culturing for 5 hours, the culture medium was replaced with a new culture medium. […] The protein concentration of the cell lysate was determined with BCA protein assay kit (Thermo Fisher Scientific). […] Thr389 phosphorylation of GST-S6K1, which is a substrate of mTORC1, was measured by performing immunoblot analysis using phospho Thr389 p70 S6 kinase antibody (#9205S, Cell Signaling) and GST antibody (#A190-122A, Bethyl Laboratories). […]
Background: Immunoblotting shows a protein as a band on a membrane.

For assay [2], the target named is T2, mTORC2 (Homo sapiens, UniProt P42345). The experiment in a line: LocaTOR2 assay in A549 cells (FRB-AKT2 Ser473 phosphorylation). The format is cell-based. Details: endogenous in cells; host or cells: A549 (transfected only with the FKBP-recruiter and the FRB-AKT2 reporter). Conditions: A549, KRas4B^C30-FKBP recruiter, AP21967; norathyriol at 30 μM and 60 μM; FIG. 9a. The source says:
mTORC2 is located in the cell membrane, endosome, ER and mitochondrial membrane. mTORC2 forms an mTORC2 complex as an activated form of ras (ras-GTP) operates as a scaffold in the cell membrane, whereas it forms an mTORC2 complex as mLST8 operates as a scaffold in the endosome. By this difference, the mTORC2 inhibitory effect of norathyriol may be shown differently depending on the subcellular compartment where mTORC2 is located. In order to investigate the mTORC2 inhibitory effect of norathyriol depending on the subcellular compartment location, in vivo LocaTOR2 assay was performed (Ebner et al. (2017) J. Cell Biol. 216:343-353). After introducing FKBP-recruiter selectively located in the membrane of the subcellular compartment and FRB^T2098L-AKT2 which is an mTORC2 substrate, AP21967 was treated for 40 minutes to induce binding between the FKBP-recruiter and FRB-AKT2, and FRB-AKT2 was moved to a specific subcellular compartment. In addition, the degree of phosphorylation of Ser473 of FRB-Akt by mTORC2 located in the site thereof was investigated by immunoblot analysis.

Assay [3] addresses T2, mTORC2. The experiment in a line: In vitro mTORC2 kinase assay (GST-Akt Ser473 phosphorylation, immunoblot). Particulars: assay validation with dual mTOR inhibitor. The format is biochemical. Details: mTORC was isolated by co-immunoprecipitation using Flag antibody; made in house; host or cells: HEK 293T transfected with Flag-mLST8. The procedure: After introducing Flag-mLST8 into a human cell line 293T, mTORC was isolated by co-immunoprecipitation using Flag antibody. In the in vitro mTORC2 kinase assay, the activity of the isolated mTORC2 was evaluated by measuring phosphorylation of GST-Akt Ser473, which is a selective substrate of mTORC2 by immunoblot analysis. In the control group in which Flag-mLST8 was not introduced, GST-Akt Ser473 phosphorylation was almost not measured. […] Therefore, it was judged that GST-Akt Ser473 phosphorylation measured in the in vitro mTORC2 kinase assay was generated by mTORC2. In order to evaluate the inhibitory effect of norathyriol and athyriol on mTORC2 activity, norathyriol or athyriol was pretreated for 15 minutes, and then in vitro mTORC2 kinase assay was carried out.
More specifically, the HEK 293T cells were cultured in a DMEM culture medium in which 10% heat inactivated FBS+1× Glutamax was added. 8×10^5 HEK 293T cells were seeded in a 100 mm culture dish, and then they were cultured for 1 day. After mixing 42 μl Lipofectamine, 21 μl plus reagent, and 21 μg Flag-mLST8 plasmid DNA to 1 ml OPTI-MEM, it was shaken at a room temperature for 25 minutes to prepare a transfection DNA mixture. The transfection DNA mixture was slowly treated on the cells drop by drop, and after culturing for 5 hours, the culture medium was replaced with a new culture medium. After additional culturing for 48 hours, the cells were […] with CHAPS buffer (50 mM HEPES (pH7.4), 100 mM NaCl, 2 mM EDTA, 0.3% CHAPS, 10 mM sodium pyrophosphate, 10 mM sodium β-glycerophosphate, 1 mM PMSF, 1 μg/ml leupeptin, 1 μg/ml pepstatin A, 10 nM aprotinin, 1 mM Na3VO4, 10 nM calyculin A), and centrifuged at 4° C. at 13,000 rpm for 10 minutes to obtain the supernatant and acquire cell lysate. The protein concentration of the cell lysate was determined with BCA protein assay kit (Thermo Fisher Scientific). After adding anti-Flag M2 affinity gel (50% slurry, Sigma) of 30 μl to the cell lysate of 1 mg, it was shaken at 4° C. for 3 hours. After that, affinity gel was washed with CHAPS buffer 3 times and kinase buffer (50 mM HEPES (pH7.5), 2 mM DTT, 10 mM MnCl2, 10 mM MgCl2) for washing once. After adding kinase buffer [-substrate-ATP] […] After that, kinase buffer (50 mM HEPES (pH7.5), 2 mM DTT, 10 mM MgCl2, 10 mM MnCl2, 1 mM ATP, 500 ng GST-AKT, 10 nM calyculin A) of 10 μl was added and shaken at 30° C. for 45 minutes to progress a kinase reaction. […] Ser473 phosphorylation of GST-AKT, which is a substrate of mTORC2, was measured by performing immunoblot analysis using AKT antibody (#4691, Cell signaling) and phospho Ser473 AKT antibody (#4060, Cell signalig). In order to measure the mTORC2 activity inhibitory effect by the compound, both the kinase buffer [-substrate-ATP] and the kinase buffer included the compound.

For assay [4], the target named is T3, mTORC2 located in late endosome of dendritic spines (Rattus norvegicus, UniProt P42346).
T3 construct: endogenous in cells; host or cells: primary cultured cerebral neurons from SD-rat E16 embryos, transduced by lentivirus only with mCherry-FRB-AKT2 and Rab7-FKBP
The experiment in a line: LocaTOR2 assay-immunofluorescent staining in primary cultured cerebral neurons (mGluR-dependent mTORC2 activation). The format is cell-based. Conditions: FIG. 11a. The text has this:
By combining Loca-TOR2 assay and immunofluorescence staining, changes in mTORC2 activity located in the late endosome during the induction process of long term depression (LTD) occurring in dendritic spines of primarily cultured cerebral neurons were investigated, and the inhibitory effect of norathyriol on these changes was investigated.
Specifically, mCherry-FRB-AKT2 and Rab7-FKBP were introduced using a lentiviral vector on the primarily cultured cerebral neuron on the DIV5 day, and AP21967 was treated on the DIV17 day to induce binding of FRB and FKBP, and thereby, mCherry-FRB-AKT2 was located in the late endosome. After that, DHPG, which is an mGluR agonist inducing long-term depression, was treated. […] In addition, by measuring Ser473 phosphorylation staining of mCherry-FRB-AKT2 overlapped with PSD-95 staining, which is a protein located in dendritic spines, by immunofluorescent staining, changes in mTORC2 activity located in the late endosome in the dendritic spines can be investigated. After staining using a phospho-Ser473 AKT antibody by immunofluorescent staining, the degree of AKT Ser473 phosphorylation was quantified by counting the number of each fluorescent puncta larger than 0.4 μm or more in size in the dendrites (green). In addition, the dendritic spines were observed by staining with PSD95 antibody (yellow), and the location of mCherry-FRB-AKT2 was investigated by observing mCherry fluorescence (cherry color).
SD-rat gestational age 16-day mice (Orient Bio) were purchased and the mice were anesthetized with CO2 and then embryos were taken out. Until the forebrain was isolated and the meninges were removed, it was performed by the same method as the hippocampal culture, and when the cerebrum was isolated, the dorsal cortex or ventral cortex was cut with a bended syringe needle, and it was collected in new HBSS. The tissue isolated and collected was transferred to a 15 ml tube with a Pasteur pipette, and then in order to remove the remaining meninges and blood vessels, and the like, 2 ml HBSS and 0.25% trypsin of 2 ml were added, and it was reacted in a 37° C. shaker for 10-15 minutes. The cells were settled and the supernatant was removed leaving 1-2 ml, and then trypsin was inactivated by adding DMEM comprising the equal amount of 20% FBS. After centrifugation at 700 rpm for 15 minutes, the supernatant was discarded all and the collected tissue was released, and then Neurobasal culture medium (+glutamate) of 2 ml was added, and titrated with a pipette, and the cells were isolated by changing to a pipette with a narrow end. […] The number of cells was measured with a hemocytometer, and then the cells were seeded in a coated culture dish. […]

The test system of assay [5] is Arc protein expression. In words: mGluR-dependent Arc protein expression in cerebral neurons. It is filed as cell-based. Conditions: DHPG alone; FIG. 12a. The procedure:
When mGluR is activated in dendritic spines of cerebral neurons, Arc protein is synthesized, and the Arc protein promotes endocytosis of an AMPA receptor to form LTD.
Specifically, DHPG was treated to cerebral neurons, which were obtained by primary culture of white mouse embryo E16 cerebral regions and differentiated for […] (DIV21), for 5 minutes or 10 minutes to activate mGluR. As an Arc antibody, Arc protein (green) and PSD95 (red), which is a marker antibody of postsynaptic density of a synapse, were under
After double immunofluorescent staining of Arc protein with an Arc antidody (green) and PSD95, a marker of postsynaptic density of synapse, with an PSD95 antibody (red), Arc expression in dendritic spines was quantified as the number of Arc+PSD95 double stained puncta per 20 μm neurite length by confocal scanning microscopic scanning.

In the case of `COc1ccc(-c2ccc3c(N4CCOC[C@@H]4C)nc(N4CCOC[C@@H]4C)nc3n2)cc1CO` [AZD8055, reference compound], in assay [1], the “GST-S6K Thr389 phosphorylation” value is given as “mostly reduced”. The “FRB-AKT2 Ser473 phosphorylation, mTORC2 located in cell membrane” value in assay [2] is listed as “reduced the phosphorylation of FRB-AKT2 Ser473 to a level of the control group”. In assay [3], the “GST-Akt Ser473 phosphorylation” value is recorded as “mostly reduced”.
As to `NC(C(=O)O)c1cc(O)cc(O)c1` (stereo not shown) [DHPG, 3,5-dihydroxyphenylglycine], the entries for the “increase of Ser473 phosphorylation of mCherry-FRB-AKT2 located in late endosome of dendritic spines” value in assay [4] (after 5 minutes of treating DHPG) and in assay [4] (after 10 minutes of treating DHPG) were 55% and 72%, respectively. Further, in assay [4] (after 20 minutes of treating DHPG), the “Ser473 phosphorylation of mCherry-FRB-AKT2 located in late endosome of dendritic spines” value is “reduced to the level of the control group”. In assay [5], the “Arc synthesis in dendritic spines (immunofluorescent staining)” value is recorded as “increased up to 10 minutes after treating DHPG”.
